Assay results published in patent publication US6818739B2, “Somatostatins” (NDSU Research Foundation, priority 1999, dated 2004).
Ends that are not written are not given here.

How the values were obtained:
[1] = test system: goldfish pituitary fragments; conditions: goldfish pituitary fragments in vitro; Marchant et al. 1989; cited from earlier work
rainbow trout = conditions: in rainbow trout; Eilertson et al. 1993; cited from earlier work
[2] = biological target: T1, human somatostatin receptor subtype 1 (Homo sapiens, UniProt P30872); assay: Radio-receptor assay: competitive binding of somatostatins to cloned somatostatin receptor; conditions: microsomes from COS-7 cells transiently expressing the human SS type 1 receptor; compared with mammalian SS-14 and mammalian SS-28; FIG. 8
T1 construct: expressed in transfected cells; host or cells: COS-7 cells, transient transfection with pCMV6b expression vector; microsomal membranes
T1 sequence (P30872 whole entry): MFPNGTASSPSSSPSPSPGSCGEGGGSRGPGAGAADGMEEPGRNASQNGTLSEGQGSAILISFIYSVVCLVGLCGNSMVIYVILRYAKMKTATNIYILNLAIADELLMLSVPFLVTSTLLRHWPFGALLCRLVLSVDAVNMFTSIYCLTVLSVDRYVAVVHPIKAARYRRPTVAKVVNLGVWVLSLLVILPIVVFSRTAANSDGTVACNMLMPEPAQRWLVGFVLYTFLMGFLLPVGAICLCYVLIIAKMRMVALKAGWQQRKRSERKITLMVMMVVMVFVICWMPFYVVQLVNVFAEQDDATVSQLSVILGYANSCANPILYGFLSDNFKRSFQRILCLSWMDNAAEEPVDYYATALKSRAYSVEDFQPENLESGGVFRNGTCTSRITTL
Description: Somatostatin receptor cDNA was cloned into an expression vector, transfected into a eukaryotic cell line, and expressed as a peptide on the cell's surface to characterized the binding properties of the receptor for various somatostatin ligands.
Human somatostatin receptor subtype I cDNA was graciously obtained from Dr. Graeme Bell at the University of Chicago. Clones were prepared substantially as described in Yamada et al., Proc. Natl. Acad. Sci. USA, 89, 251-255 (1992). Briefly, a cDNA library was created by inserting total cDNA into a cloning vector. Clones containing the cDNA inserts were digested with restriction endonuclease Bg1II and subsequently subcloned in the pCMV6b expression vector (Stratagene Zap Express cDNA Synthesis Kit, La Jolla, Calif.). The resulting expression vector containing the cloned somatostatin receptor was transfected into COS-7 (American Tissue Culture Collection, Manassas, Va.) cells for peptide expression.
Twenty-four hours after splitting cells (e.g., COS-7) into new T-75 culture flasks (Nalgene, Rochester, N.Y.), the cells were washed with phosphate-buffered saline (PBS) and Tris-buffered saline-dextrose (TBS-D) solutions. […]
All tubes were incubated for 30-60 minutes at 37° C. while shaking. […] The resulting pellets were counted in a gamma counter to determine the binding properties of the various ligands to the somatostatin receptor.

[3] = biological target: T2, cloned human somatostatin receptor subtype 1 (human, UniProt P30872 1-391); assay: radio-receptor competition assay, displacement of 125I-[Tyr1]-SS-14 from COS-7 microsomal membranes
T2 construct: whole, on cells; Transiently expressed in COS-7 cells; The assay used microsomal membrane preparations of these cells, not intact cells; also called human SS type 1 receptor; human somatostatin receptor type 1
T2 sequence (P30872 whole entry): as above
Description: Briefly, cell membranes, 25–1000 µg, were added to two sets of tubes labeled for total and non-specific binding (in triplicate) containing the following reagents in a final volume of 300 µl.
All tubes were incubated for 30–60 minutes at 37° C. while shaking. Reactions were stopped by adding 1 ml of ice-cold assay buffer and centrifuged at 20,000×g for 15 minutes. The supernatant is aspirated off. The resulting pellets were washed once with ice-cold assay buffer and centrifuged again at 20,000×g for 15 minutes. Again, the supernatant was aspirated off. The resulting pellets were counted in a gamma counter to determine the binding properties of the various ligands to the somatostatin receptor.

Molecule	ability to inhibit the release of growth hormone [1]	inhibition of insulin (rainbow trout)	affinity of the human somatostatin receptor type 1 for the ligand (inhibition of binding of 125I-[Tyr1]-SS-14) [2]	binding result [3]
Ala-Gly-Cys-Lys-Asn-Phe-Phe-Trp-Lys-Thr-Phe-Thr-Ser-Cys [SS-14]	equipotent	did not		
Ser-Ala-Asn-Ser-Asn-Pro-Ala-Met-Ala-Pro-Arg-Glu-Arg-Lys-Ala-Gly-Cys-Lys-Asn-Phe-Phe-Trp-Lys-Thr-Phe-Thr-Ser-Cys (SANSNPAMAPRERKAGCKNFFWKTFTSC; listed as Homo sapiens) [SS-28]	equipotent			
salmonid SS-25: 25 amino acid PPSS-II″ proprotein containing [Tyr7, Gly10]-SS-14 at its C-terminus; synthetic (SVDNLPPRERKAGCKNFYWKGFTSC; ends and bridges not checked; cysteine pairing not given here)	no effect	inhibited insulin	greater affinity	
SANSNPAMAPRERKAGCKNFFWKTFTSC [mammalian SS-28]				binds
